From patent EP4745137A1 (Gluetacs Therapeutics (Shanghai) Co., Ltd., priority 2023, dated 2025)
Read-outs that look alike come from different tables or passages of the source. Values belong to the compound of their own block, whether it stands above or below them.

What was measured:
WEE1 = target: T1, WEE1 (Homo sapiens, UniProt P30291+Q96SW2); assay: Western-blot assay of substrate protein degradation in hPBMCs, WEE1; format: cell-based; conditions: 24 hours of compound treatment
T1 construct: endogenous in cells; host or cells: hPBMCs (Milecell Biotechnologies)
T1 sequence (P30291 whole entry): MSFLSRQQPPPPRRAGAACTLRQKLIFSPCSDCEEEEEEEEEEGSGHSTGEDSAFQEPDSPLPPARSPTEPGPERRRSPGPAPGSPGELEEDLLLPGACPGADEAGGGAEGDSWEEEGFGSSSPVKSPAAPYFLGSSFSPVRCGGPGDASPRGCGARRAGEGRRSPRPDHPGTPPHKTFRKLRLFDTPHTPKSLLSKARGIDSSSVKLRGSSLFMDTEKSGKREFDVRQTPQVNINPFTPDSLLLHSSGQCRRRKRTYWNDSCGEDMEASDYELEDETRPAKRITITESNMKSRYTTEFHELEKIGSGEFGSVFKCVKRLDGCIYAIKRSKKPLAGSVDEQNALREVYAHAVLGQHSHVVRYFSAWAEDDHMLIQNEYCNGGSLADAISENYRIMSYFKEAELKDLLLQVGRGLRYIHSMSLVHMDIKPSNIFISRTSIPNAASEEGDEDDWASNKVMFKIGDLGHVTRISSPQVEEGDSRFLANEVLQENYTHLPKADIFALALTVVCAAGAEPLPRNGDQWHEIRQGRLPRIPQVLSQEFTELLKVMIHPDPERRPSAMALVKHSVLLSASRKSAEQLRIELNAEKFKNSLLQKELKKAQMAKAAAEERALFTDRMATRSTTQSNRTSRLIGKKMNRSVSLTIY
T1 sequence (Q96SW2 whole entry): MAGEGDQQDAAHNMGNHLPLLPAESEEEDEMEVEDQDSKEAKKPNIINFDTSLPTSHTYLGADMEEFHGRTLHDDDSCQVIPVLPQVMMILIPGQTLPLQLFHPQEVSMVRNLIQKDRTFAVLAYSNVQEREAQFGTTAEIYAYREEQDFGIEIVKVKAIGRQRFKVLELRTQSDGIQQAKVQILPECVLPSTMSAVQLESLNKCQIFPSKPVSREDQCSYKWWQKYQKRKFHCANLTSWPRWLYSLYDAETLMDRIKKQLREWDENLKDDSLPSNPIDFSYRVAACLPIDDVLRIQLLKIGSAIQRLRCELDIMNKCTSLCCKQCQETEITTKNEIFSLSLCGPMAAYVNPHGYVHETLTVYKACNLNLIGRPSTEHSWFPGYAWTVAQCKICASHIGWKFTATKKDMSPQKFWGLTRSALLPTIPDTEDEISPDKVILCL
T1 sequence (Q16531 whole entry partner): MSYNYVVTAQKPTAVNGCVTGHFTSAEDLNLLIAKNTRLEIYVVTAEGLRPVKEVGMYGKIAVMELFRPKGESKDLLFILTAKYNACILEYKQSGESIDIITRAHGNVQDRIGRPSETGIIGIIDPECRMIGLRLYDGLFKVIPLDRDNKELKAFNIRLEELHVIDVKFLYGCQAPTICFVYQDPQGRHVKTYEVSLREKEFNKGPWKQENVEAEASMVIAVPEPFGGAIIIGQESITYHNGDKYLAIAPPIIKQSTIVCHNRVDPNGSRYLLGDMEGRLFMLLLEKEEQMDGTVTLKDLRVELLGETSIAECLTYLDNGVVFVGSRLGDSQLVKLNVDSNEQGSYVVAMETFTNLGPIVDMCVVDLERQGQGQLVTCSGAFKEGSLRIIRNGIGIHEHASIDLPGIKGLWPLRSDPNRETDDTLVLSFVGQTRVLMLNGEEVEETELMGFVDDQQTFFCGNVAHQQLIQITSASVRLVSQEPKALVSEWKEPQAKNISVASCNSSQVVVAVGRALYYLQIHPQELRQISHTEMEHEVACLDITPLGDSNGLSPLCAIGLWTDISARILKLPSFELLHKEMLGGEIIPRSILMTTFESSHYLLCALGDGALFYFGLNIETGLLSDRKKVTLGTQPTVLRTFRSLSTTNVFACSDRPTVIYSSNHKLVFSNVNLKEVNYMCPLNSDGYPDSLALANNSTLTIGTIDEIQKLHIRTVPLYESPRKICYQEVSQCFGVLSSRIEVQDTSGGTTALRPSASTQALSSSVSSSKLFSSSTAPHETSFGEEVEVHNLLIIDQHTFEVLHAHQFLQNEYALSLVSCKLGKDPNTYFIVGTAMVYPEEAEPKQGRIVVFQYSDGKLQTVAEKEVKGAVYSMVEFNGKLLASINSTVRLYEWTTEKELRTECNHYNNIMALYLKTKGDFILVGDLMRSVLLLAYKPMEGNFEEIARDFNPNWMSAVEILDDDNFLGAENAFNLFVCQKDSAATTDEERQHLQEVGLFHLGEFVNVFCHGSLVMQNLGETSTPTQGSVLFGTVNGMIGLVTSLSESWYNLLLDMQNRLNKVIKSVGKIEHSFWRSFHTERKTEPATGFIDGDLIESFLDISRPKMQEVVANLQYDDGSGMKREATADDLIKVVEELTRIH

IKZF1 = target: T2, IKZF1 (Homo sapiens, UniProt Q13422+Q96SW2); assay: Western-blot assay of substrate protein degradation in hPBMCs, IKZF1; format: cell-based; conditions: 24 hours of compound treatment
T2 construct: endogenous in cells; host or cells: hPBMCs (Milecell Biotechnologies)
T2 sequence (Q13422 whole entry): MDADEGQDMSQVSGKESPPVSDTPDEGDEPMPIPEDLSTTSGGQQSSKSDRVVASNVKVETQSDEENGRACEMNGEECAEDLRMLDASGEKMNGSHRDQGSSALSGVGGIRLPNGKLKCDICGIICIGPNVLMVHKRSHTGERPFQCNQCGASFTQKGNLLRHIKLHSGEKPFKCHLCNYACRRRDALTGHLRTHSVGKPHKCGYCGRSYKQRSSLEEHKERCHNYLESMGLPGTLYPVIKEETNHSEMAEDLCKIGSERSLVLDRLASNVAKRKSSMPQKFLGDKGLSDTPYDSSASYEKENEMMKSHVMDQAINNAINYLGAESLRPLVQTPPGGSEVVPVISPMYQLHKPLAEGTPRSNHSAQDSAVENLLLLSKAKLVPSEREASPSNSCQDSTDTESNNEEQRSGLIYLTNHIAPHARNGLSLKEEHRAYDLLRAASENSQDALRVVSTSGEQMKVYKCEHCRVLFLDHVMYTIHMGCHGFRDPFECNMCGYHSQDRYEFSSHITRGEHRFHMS
T2 sequence (Q96SW2 whole entry): as the sequence (Q96SW2 whole entry) above
T2 sequence (Q16531 whole entry partner): as the sequence (Q16531 whole entry partner) above

IKZF2 = target: T3, IKZF2 (Homo sapiens, UniProt Q96SW2+Q9UKS7); assay: Western-blot assay of substrate protein degradation in hPBMCs, IKZF2; format: cell-based; conditions: 24 hours of compound treatment
T3 construct: endogenous in cells; host or cells: hPBMCs (Milecell Biotechnologies)

IKZF3 = target: T4, IKZF3 (Homo sapiens, UniProt Q96SW2+Q9UKT9); assay: Western-blot assay of substrate protein degradation in hPBMCs, IKZF3; format: cell-based; conditions: 24 hours of compound treatment
T4 construct: endogenous in cells; host or cells: hPBMCs (Milecell Biotechnologies)
T4 sequence (Q9UKT9 whole entry): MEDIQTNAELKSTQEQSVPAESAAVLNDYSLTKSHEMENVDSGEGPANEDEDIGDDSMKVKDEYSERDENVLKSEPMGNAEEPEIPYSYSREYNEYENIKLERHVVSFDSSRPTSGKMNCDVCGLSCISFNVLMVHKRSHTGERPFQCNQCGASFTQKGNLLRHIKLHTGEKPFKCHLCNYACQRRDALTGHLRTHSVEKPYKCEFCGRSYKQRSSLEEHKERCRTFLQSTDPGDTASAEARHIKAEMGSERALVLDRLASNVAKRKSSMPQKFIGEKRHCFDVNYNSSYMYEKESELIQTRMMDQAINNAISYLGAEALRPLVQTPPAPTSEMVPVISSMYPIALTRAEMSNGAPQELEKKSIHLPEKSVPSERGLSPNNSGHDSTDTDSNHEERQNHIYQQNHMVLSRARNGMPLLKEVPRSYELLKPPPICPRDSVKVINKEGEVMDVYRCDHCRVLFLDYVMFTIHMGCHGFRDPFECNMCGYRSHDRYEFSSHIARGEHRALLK
T4 sequence (Q96SW2 whole entry): as the sequence (Q96SW2 whole entry) above
T4 sequence (Q16531 whole entry partner): as the sequence (Q16531 whole entry partner) above

CK1α = target: T5, CK1α (Homo sapiens, UniProt P48729+Q96SW2); assay: Western-blot assay of substrate protein degradation in hPBMCs, CK1α; format: cell-based; conditions: 24 hours of compound treatment
T5 construct: endogenous in cells; host or cells: hPBMCs (Milecell Biotechnologies)
T5 sequence (P48729 whole entry): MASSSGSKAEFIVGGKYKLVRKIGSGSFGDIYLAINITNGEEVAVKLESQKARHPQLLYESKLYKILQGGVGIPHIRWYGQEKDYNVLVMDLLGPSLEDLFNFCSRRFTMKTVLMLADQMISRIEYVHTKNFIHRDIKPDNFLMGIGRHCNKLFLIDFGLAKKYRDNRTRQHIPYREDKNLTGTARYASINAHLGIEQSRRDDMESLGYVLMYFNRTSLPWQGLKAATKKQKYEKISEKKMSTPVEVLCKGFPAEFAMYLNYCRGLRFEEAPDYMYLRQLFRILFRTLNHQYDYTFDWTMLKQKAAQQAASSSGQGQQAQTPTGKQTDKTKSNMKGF
T5 sequence (Q96SW2 whole entry): as the sequence (Q96SW2 whole entry) above
T5 sequence (Q16531 whole entry partner): as the sequence (Q16531 whole entry partner) above

GSPT1 = target: T6, GSPT1 (Homo sapiens, UniProt P15170+Q96SW2); assay: Western-blot assay of substrate protein degradation in hPBMCs, GSPT1; format: cell-based; conditions: 24 hours of compound treatment
T6 construct: endogenous in cells; host or cells: hPBMCs (Milecell Biotechnologies)
T6 sequence (P15170 whole entry): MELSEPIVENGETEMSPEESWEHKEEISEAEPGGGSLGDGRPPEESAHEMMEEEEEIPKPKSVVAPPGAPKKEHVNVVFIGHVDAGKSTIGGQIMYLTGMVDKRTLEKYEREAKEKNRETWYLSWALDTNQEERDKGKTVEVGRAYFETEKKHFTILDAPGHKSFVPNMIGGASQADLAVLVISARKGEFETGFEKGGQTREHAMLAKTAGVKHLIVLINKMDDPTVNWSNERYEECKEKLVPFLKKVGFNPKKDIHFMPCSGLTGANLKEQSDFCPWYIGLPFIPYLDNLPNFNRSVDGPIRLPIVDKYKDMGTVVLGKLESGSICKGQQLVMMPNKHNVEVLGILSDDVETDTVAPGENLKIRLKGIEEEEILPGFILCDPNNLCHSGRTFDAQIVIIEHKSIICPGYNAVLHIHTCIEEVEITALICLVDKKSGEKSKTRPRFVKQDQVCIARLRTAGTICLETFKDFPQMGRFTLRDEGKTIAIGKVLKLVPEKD
T6 sequence (Q96SW2 whole entry): as the sequence (Q96SW2 whole entry) above
T6 sequence (Q16531 whole entry partner): as the sequence (Q16531 whole entry partner) above

[1] = target: T7, human Cereblon WT GST-tagged protein (Homo sapiens, UniProt Q96SW2); assay: CRBN-binding affinity by HTRF (CEREBLON BINDING kit)
T7 construct: purchased CISBIO 64BDCRBNPEH
T7 sequence (Q96SW2 whole entry): as the sequence (Q96SW2 whole entry) above
Description: The CEREBLON BINDING kits (specification: 10,000 tests; product number: Catalog # 64BDCRBNPEH; CISBIO company) was used to determine the CRBN binding ability of the compounds to be tested through a HTRF method (homogeneous time-resolved fluorescence). The specific methods are as follows: • 1. […] Specifically, diluent #9 (1X) solution was used as the diluent, and multiple concentration gradients were set. […] Then, 2.5 µL of human Cereblon WT GST-tagged protein solution was added to each well. Finally, 5 µL of the thoroughly mixed Thalidomide-Re reagent and GST Eu antibody working solution were added to each of the aforementioned wells. […] The blank control wells were sequentially added with 2.5 µL of diluent #9 (1X) solution, 2.5 µL of binding buffer, and 5 µL of thoroughly mixed Thalidomide-Re reagent and GST Eu antibody working solution. • 4.

[2] = compounds tested at 50 nM and 500 nM (concentration of the table not stated)
[3] = HTRF inhibitory activity, CEREBLON BINDING kit; read-out: HTRF IC50
[4] = 50 nM and 500 nM tested (concentration behind the class not stated)

- IC50 [1, 3]: 500 to 1000 nM
Compound: O=C1CCC(N2Cc3cc(CN4CCc5sccc5C4)ccc3C2=O)C(=O)N1 (stereo not shown) [GT-04200, 3-(5-((6,7-dihydrothieno[3,2-c]pyridin-5(4H)-yl)methyl)-1-oxoisoindolin-2-yl)piperidine-2,6-dione]
- Weel substrate protein remaining % (WEE1; [2]): A (0% ≤ substrate protein remaining % ≤ 80%)
- IKZF 1 substrate protein remaining % (IKZF1; [2]): B (80%< substrate protein remaining %≤ 100%)
- IKZF2 substrate protein remaining % (IKZF2; [2]): A (0% ≤ substrate protein remaining % ≤ 80%)
- IKZF3 substrate protein remaining % (IKZF3; [2]): A (0% ≤ substrate protein remaining % ≤ 80%)
- CK1a substrate protein remaining % (CK1α; [2]): B (80%< substrate protein remaining %≤ 100%)
- GSPT1 substrate protein remaining % (GSPT1; [2]): B (80%< substrate protein remaining %≤ 100%)

- IC50 [1, 3]: < 500 nM
Compound: O=C1CCC(N2Cc3cc(CN4CCN(c5ncccc5Cl)CC4)ccc3C2=O)C(=O)N1 (stereo not shown) [GT-04428, 3-(5-((4-(3-chloropyridin-2-yl)piperazin-1-yl)methyl)-1-oxoisoindolin-2-yl)piperidine-2,6-dione]
- Weel substrate protein remaining % (WEE1; [2]): B (80%< substrate protein remaining %≤ 100%)
- IKZF 1 substrate protein remaining % (IKZF1; [2]): B (80%< substrate protein remaining %≤ 100%)
- IKZF2 substrate protein remaining % (IKZF2; [2]): B (80%< substrate protein remaining %≤ 100%)
- IKZF3 substrate protein remaining % (IKZF3; [2]): B (80%< substrate protein remaining %≤ 100%)
- CK1a substrate protein remaining % (CK1α; [2]): B (80%< substrate protein remaining %≤ 100%)
- GSPT1 substrate protein remaining % (GSPT1; [2]): A (0% ≤ substrate protein remaining % ≤ 80%)

- IC50 [1, 3]: 1000 to 1500 nM
Compound: O=C1CCC(N2Cc3cc(CN4CCN(c5ccc(C(F)(F)F)cn5)CC4)ccc3C2=O)C(=O)N1 (stereo not shown) [GT-04433, 3-(1-oxo-5-((4-(5-(trifluoromethyl)pyridin-2-yl)piperazin-1-yl)methyl)isoindolin-2-yl)piperidine-2,6-dione]
- Weel substrate protein remaining % (WEE1; [2]): B (80%< substrate protein remaining %≤ 100%)
- IKZF 1 substrate protein remaining % (IKZF1; [2]): B (80%< substrate protein remaining %≤ 100%)
- IKZF2 substrate protein remaining % (IKZF2; [2]): B (80%< substrate protein remaining %≤ 100%)
- IKZF3 substrate protein remaining % (IKZF3; [2]): B (80%< substrate protein remaining %≤ 100%)
- CK1a substrate protein remaining % (CK1α; [2]): B (80%< substrate protein remaining %≤ 100%)
- GSPT1 substrate protein remaining % (GSPT1; [2]): A (0% ≤ substrate protein remaining % ≤ 80%)

- IC50 [1, 3]: < 500 nM
Compound: O=C1CCC(N2Cc3cc(CN4CCN(c5ccnc(Cl)c5)CC4)ccc3C2=O)C(=O)N1 (stereo not shown) [GT-04435, 3-(5-((4-(2-chloropyridin-4-yl)piperazin-1-yl)methyl)-1-oxoisoindolin-2-yl)piperidine-2,6-dione]

- IC50 [1, 3]: < 500 nM
Compound: O=C1CCC(N2Cc3cc(CN4CCN(c5c(Cl)cncc5Cl)CC4)ccc3C2=O)C(=O)N1 (stereo not shown) [GT-04436, 3-(5-((4-(3,5-dichloropyridin-4-yl)piperazin-1-yl)methyl)-1-oxoisoindolin-2-yl)piperidine-2,6-dione]

- IC50 [1, 3]: 500 to 1000 nM
Compound: O=C1CCC(N2Cc3cc(CN4CCN(c5nc(Cl)nc6c5SCC6)CC4)ccc3C2=O)C(=O)N1 (stereo not shown) [GT-04683, 3-(5-((4-(2-chloro-6,7-dihydrothieno[3,2-d]pyrimidin-4-yl)piperazin-1-yl)methyl)-1-oxoisoindolin-2-yl)piperidine-2,6-dione]

- IC50 [1, 3]: < 500 nM
Compound: O=C1CCC(N2Cc3cc(CN4CCN(c5nc6c(c(N7CCNCC7)n5)SCC6)CC4)ccc3C2=O)C(=O)N1 (stereo not shown) [GT-04720, 3-(1-oxo-5-((4-(4-(piperazin-1-yl)-6,7-dihydrothieno[3,2-d]pyrimidin-2-yl)piperazin-1-yl)methyl)isoindolin-2-yl)piperidine-2,6-dione]

- IC50 [1, 3]: 500 to 1000 nM
Compound: O=C1CCC(N2Cc3cc(CN4CCC(c5noc6cc(F)ccc56)CC4)cc(F)c3C2=O)C(=O)N1 (stereo not shown) [GT-04767, 3-(7-fluoro-5-((4-(6-fluorobenzo[d]isoxazol-3-yl)piperidin-1-yl)methyl)-1-oxoisoindolin-2-yl)piperidine-2,6-dione]

- IC50 [1, 3]: 1500 to 1900 nM
Compound: O=C1CCC(N2Cc3ccc(CN4CCC(c5noc6cc(F)ccc56)CC4)cc3C2=O)C(=O)N1 (stereo not shown) [GT-04768, 3-(6-((4-(6-fluorobenzo[d]isoxazol-3-yl)piperidin-1-yl)methyl)-1-oxoisoindolin-2-yl)piperidine-2,6-dione]

- IC50 [1, 3]: 500 to 1000 nM
Compound: O=C1CCC(N2Cc3cc(CN4CCN(c5c(Cl)ccnc5Cl)CC4)ccc3C2=O)C(=O)N1 (stereo not shown) [GT-04896, 3-(5-((4-(2,4-dichloropyridin-3-yl)piperazin-1-yl)methyl)-1-oxoisoindolin-2-yl)piperidine-2,6-dione]

- IC50 [1, 3]: < 500 nM
Compound: Cc1nc(N2CCN(Cc3ccc4c(c3)CN(C3CCC(=O)NC3=O)C4=O)CC2)c2c(-c3ccccc3)csc2n1 (stereo not shown) [GT-05100, 3-(5-((4-(2-methyl-5-phenylthieno[2,3-d]pyrimidin-4-yl)piperazin-1-yl)methyl)-1-oxoisoindolin-2-yl)piperidine-2,6-dione]

- IC50 [1, 3]: 1000 to 1500 nM
Compound: O=C1CCC(N2C(=O)c3ccc(CN4CCN(c5ncnc6scc(-c7ccccc7)c56)CC4)cc3C2=O)C(=O)N1 (stereo not shown) [GT-06345, 2-(2,6-dioxopiperidin-3-yl)-5-((4-(5-phenylthieno[2,3-d]pyrimidin-4-yl)piperazin-1-yl)methyl)isoindoline-1,3-dione]

- IC50 [1, 3]: 1000 to 1500 nM
Compound: Cc1nc(N2CCN(Cc3ccc4c(c3)C(=O)N(C3CCC(=O)NC3=O)C4=O)CC2)c2c(-c3ccccc3)csc2n1 (stereo not shown) [GT-06346, 2-(2,6-dioxopiperidin-3-yl)-5-((4-(2-methyl-5-phenylthieno[2,3-d]pyrimidin-4-yl)piperazin-1-yl)methyl)isoindoline-1,3-dione]

- IC50 [1, 3]: 1000 to 1500 nM
Compound: O=C1CCC(N2C(=O)c3ccc(CN4CCC(c5ncnc6scc(-c7ccccc7)c56)CC4)cc3C2=O)C(=O)N1 (stereo not shown) [GT-06595, 2-(2,6-dioxopiperidin-3-yl)-5-((4-(5-phenylthieno[2,3-d]pyrimidin-4-yl)piperidin-1-yl)methyl)isoindoline-1,3-dione]

- IC50 [1, 3]: 1500 to 1900 nM
Compound: O=C1CCC(N2C(=O)c3ccc(CN4CCN(c5ccc(Cl)nn5)CC4)cc3C2=O)C(=O)N1 (stereo not shown) [GT-06605, 5-((4-(6-chloropyridazin-3-yl)piperazin-1-yl)methyl)-2-(2,6-dioxopiperidin-3-yl)isoindoline-1,3-dione]

Compound: O=C1CCC(N2C(=O)c3ccc(CN4CCN(c5nc6c(c(N7CCOCC7)n5)SCC6)CC4)cc3C2=O)C(=O)N1 (stereo not shown) [GT-06713, 2-(2,6-dioxopiperidin-3-yl)-5-((4-(4-morpholino-6,7-dihydrothieno[3,2-d]pyrimidin-2-yl)piperazin-1-yl)methyl)isoindoline-1,3-dione]
- IC50 ([1]; read-out: HTRF IC50; HTRF inhibitory activity, CEREBLON BINDING kit): 1500 to 1900 nM

Compound: O=C1CCC(N2C(=O)c3ccc(CNC45CC6CC(CC(C6)C4)C5)cc3C2=O)C(=O)N1 (stereo not shown) [GT-06912, 5-((((3s,5s,7s)-adamantan-1-yl)amino)methyl)-2-(2,6-dioxopiperidin-3-yl)isoindoline-1,3-dione]
- Weel substrate protein remaining % (WEE1; [4]): A (0% ≤ substrate protein remaining % ≤ 80%)
- IKZF 1 substrate protein remaining % (IKZF1; [4]): A (0% ≤ substrate protein remaining % ≤ 80%)
- IKZF2 substrate protein remaining % (IKZF2; [4]): A (0% ≤ substrate protein remaining % ≤ 80%)
- IKZF3 substrate protein remaining % (IKZF3; [4]): B (80%< substrate protein remaining %≤ 100%)
- CK1a substrate protein remaining % (CK1α; [4]): A (0% ≤ substrate protein remaining % ≤ 80%)
- GSPT1 substrate protein remaining % (GSPT1; [4]): A (0% ≤ substrate protein remaining % ≤ 80%)

Compound: O=C1CCC(N2C(=O)c3ccc(CN4CCN(c5cnccn5)CC4)cc3C2=O)C(=O)N1 (stereo not shown) [GT-07060, 2-(2,6-dioxopiperidin-3-yl)-5-((4-(pyrazin-2-yl)piperazin-1-yl)methyl)isoindoline-1,3-dione]
- Weel substrate protein remaining % (WEE1; [4]): A (0% ≤ substrate protein remaining % ≤ 80%)
- IKZF 1 substrate protein remaining % (IKZF1; [4]): A (0% ≤ substrate protein remaining % ≤ 80%)
- IKZF2 substrate protein remaining % (IKZF2; [4]): A (0% ≤ substrate protein remaining % ≤ 80%)
- IKZF3 substrate protein remaining % (IKZF3; [4]): A (0% ≤ substrate protein remaining % ≤ 80%)
- CK1a substrate protein remaining % (CK1α; [4]): A (0% ≤ substrate protein remaining % ≤ 80%)
- GSPT1 substrate protein remaining % (GSPT1; [4]): A (0% ≤ substrate protein remaining % ≤ 80%)

Compound: O=C1CCC(N2C(=O)c3ccc(CN4CCN(c5cccnn5)CC4)cc3C2=O)C(=O)N1 (stereo not shown) [GT-07844, 2-(2,6-dioxopiperidin-3-yl)-5-((4-(pyridazin-3-yl)piperazin-1-yl)methyl)isoindoline-1,3-dione]
- Weel substrate protein remaining % (WEE1; [4]): B (80%< substrate protein remaining %≤ 100%)
- IKZF 1 substrate protein remaining % (IKZF1; [4]): A (0% ≤ substrate protein remaining % ≤ 80%)
- IKZF2 substrate protein remaining % (IKZF2; [4]): B (80%< substrate protein remaining %≤ 100%)
- IKZF3 substrate protein remaining % (IKZF3; [4]): A (0% ≤ substrate protein remaining % ≤ 80%)
- CK1a substrate protein remaining % (CK1α; [4]): B (80%< substrate protein remaining %≤ 100%)
- GSPT1 substrate protein remaining % (GSPT1; [4]): B (80%< substrate protein remaining %≤ 100%)
